Read-outs that look alike come from different tables or passages of the source.
Target: CXCR2 (Homo sapiens (Human), UniProt P25025)
Assay: Inhibition of GROα-mediated intracellular calcium release in human neutrophils (FLIPR-3 Ca2+ mobilization)
Assay type: cell-based
Details: read-out: IC50
Method: In Tables 1-5, the IC50 or EC50 values were determined using the following assay. This assay measures intracellular calcium release via fluorescence as an indication of CXCR2 receptor activation by the physiologic agonist GROα. The assay is a Ca^2+ mobilization assay that measures changes in intracellular Ca^2+ with a FlexStation II scanning fluorometer using a FLIPR-3 Calcium Assay Kit (Molecular Devices, Sunnyvale, Calif.). The procedure is as follows:
1. Human neutrophils were suspended in HBSS^− (without Ca^2+ and Mg^2+) containing 10 mM HEPES and FLIPR Calcium 3 dye (3.1×10^7 cells in total volume 1.7 mL).
2. […] As controls, 2 μL of DMSO (1% final concentration) were added to other 2 tubes.
3. Cells were incubated for 30 min at 37° C.
4. After dye loading, tubes were centrifuged at 6,000 rpm for 1 min, supernatant was removed and cell pellet was re-suspended in 200 μL of HBSS^+ (with Ca^2+ and Mg^2+) containing 10 mM HEPES.
5. The compound or DMSO (control) was added again at the same concentrations that were used during cell loading.
6. The cell suspension was aliquoted into a 96-well Reading Plate (Corning) in a volume of 90 μL (10^5 cells/well). The Compound Plate contained physiologic agonist (GROα in HBSS^−) or HBSS^− (control).
9. The maximum change in fluorescence, expressed in arbitrary units over baseline (Max-Min) was used to determine the GROα response. […] Therapeutic Activity
Briefly, human neutrophils were suspended in HBSS^− (without Ca^2+ and Mg^2+) containing 10 mM HEPES and FLIPR Calcium 3 dye (3.1×10^7 cells in total volume 1.7 mL). […] As controls, 2 μL of DMSO (1% final concentration) were added to 2 other tubes. Cells were incubated for 30 min at 37° C. After dye loading, tubes were centrifuged at 6,000 rpm for 1 min, supernatant was removed and the cell pellet was re-suspended in 200 μL of HBSS^+ (with Ca^2+ and Mg^2+) containing 10 mM HEPES. The test compound or DMSO (control) was added again at the same concentrations that were used during cell loading. The cell suspension was aliquoted into a 96-well Reading Plate (Corning) in a volume of 90 μL (10^5 cells/well). The Compound Plate contained agonist (GROα in HBSS^−) or HBSS^− (control).
The maximum change in fluorescence, expressed in arbitrary units over baseline (Max-Min), was used to determine the GROα response.

Chain of CXCR2 (P25025 whole entry): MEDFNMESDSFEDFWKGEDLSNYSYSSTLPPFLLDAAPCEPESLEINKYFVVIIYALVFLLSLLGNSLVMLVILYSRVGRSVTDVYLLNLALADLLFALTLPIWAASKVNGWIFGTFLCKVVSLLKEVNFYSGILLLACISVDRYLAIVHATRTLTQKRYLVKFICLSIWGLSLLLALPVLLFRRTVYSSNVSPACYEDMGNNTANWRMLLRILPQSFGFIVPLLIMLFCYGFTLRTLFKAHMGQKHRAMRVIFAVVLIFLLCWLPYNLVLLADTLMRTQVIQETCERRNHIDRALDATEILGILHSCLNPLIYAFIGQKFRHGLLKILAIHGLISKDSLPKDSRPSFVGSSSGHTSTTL

Compound	IC50 (human neutrophils, 25 nM GROα) [µM]	IC50 [µM]
O=C(Nc1ccc(F)cc1)c1ccc(SCc2ccccc2-c2nn[nH]n2)nc1 [Compound 26]	0.173 ± 0.046	–
O=C(Nc1ccc(F)cc1)c1ccc(SCCCCN2C(=O)c3ccc([N+](=O)[O-])cc3C2=O)nc1 [Compound 59]	> 10	–
O=C(CSc1ccc(C(=O)Nc2ccc(F)cc2)cn1)c1ccc(OC(F)F)cc1 [Compound 107]	> 10	–
CC(=O)Oc1ccc(OC(F)(F)F)cc1CSc1ccc(C(=O)Nc2ccc(F)cc2)cn1 [Compound 14a]	1.06 ± 0.27	–
CC1(C)OB(c2ccccc2CCSc2ccc(C(=O)Nc3ccc(F)cc3)cn2)OC1(C)C [Compound 15]	0.611	–
Cc1ccc2cc(CSc3ccc(C(=O)Nc4ccc(F)cc4)cn3)ccc2n1 [Compound 55]	> 10	–
O=C(Nc1ccc(F)cc1)c1ccc(SCC(=O)c2cc3ccc(Br)cc3o2)nc1 [Compound 119]	0.981 ± 0.29	–
O=C(CSc1ccc(C(=O)Nc2ccc(F)cc2)cn1)c1ccc(Cl)c([N+](=O)[O-])c1 [Compound 94]	0.016	–
O=C(O)c1ccc(NC(=O)c2ccc(SCc3ccccc3B(O)O)nc2)cc1 [Compound 160]	–	> 10
O=C(Nc1ccc(F)cc1)c1ccc(SCS(=O)(=O)c2ccccc2)nc1 [Compound 83]	> 5	–
O=C(Nc1ccc(F)cc1)c1ccc(SCC(=O)c2cc(C(=O)O)no2)nc1 [Compound 138]	0.081 ± 0.01	–
O=C(Nc1ccc(F)cc1)c1ccc(SCc2ccccc2-c2cccs2)nc1 [Compound 30]	> 5	–
CC1(C)C2CC3OB(c4ccccc4CSc4ccc(C(=O)Nc5ccc(F)cc5)cn4)OC3(C)C1C2 (stereo not shown) [Compound 17]	0.059 ± 0.029	–
O=C(CSc1ccc(C(=O)Nc2ccc(F)cc2)cn1)c1ccc(Br)cc1 [Compound 88]	> 10	–
O=C(Nc1ccc(F)cc1)c1ccc(SCc2cccc(B(O)O)c2)nc1 [Compound 7]	1.97 ± 0.75	–
O=C(Nc1ccc(F)c(C(=O)O)c1)c1ccc(SCc2ccccc2B(O)O)nc1 [Compound 166]	> 10	–
O=C(Nc1ccc(F)cc1)c1ccc(SCc2ccc(-n3cccn3)cc2)nc1 [Compound 32]	> 10	–
O=C(Nc1ccc(F)cc1)c1ccc(SCc2cccc3nsnc23)nc1 [Compound 64]	> 5	–
O=C(Nc1ccc(F)cc1)c1ccc(SCC2CCCCO2)nc1 (stereo not shown) [Compound 78]	> 5	–
O=C(Nc1ccc(F)cc1)c1ccc(SCc2cccc(OC(F)(F)F)c2)nc1 [Compound 42]	> 10	–
O=C(Nc1ccc(F)cc1)c1ccc(SCc2ccc3nc(C(F)(F)F)cc(Cl)c3c2)nc1 [Compound 56]	> 5	–
O=C(Nc1ccc(F)cc1)c1ccc(SCC(=O)c2cc(Br)cc3c2OCC3)nc1 [Compound 152]	0.529 ± 0.44	–
O=C(Nc1ccc(F)cc1)c1ccc(SC[N+](=O)[O-])nc1 [Compound 84]	> 10	–
O=C(Nc1ccc(F)cc1)c1ccc(SCc2cccc(-n3cccc3)c2)nc1 [Compound 38]	> 10	–

Compound	IC50 (human neutrophils, 25 nM GROα) [µM]	IC50 [µM]
O=C(Nc1ccc(F)cc1)c1ccc(SCc2cc3c(cc2B(O)O)OCO3)nc1 [Compound 6]	> 10	–
O=C(Nc1ccc(F)cc1)c1ccc(SCC(=O)c2csc3ccc(Br)cc23)nc1 [Compound 127]	1.25 ± 0.32	–
CC1(C)OB(c2ccc(CSc3ccc(C(=O)Nc4ccc(F)cc4)cn3)cc2)OC1(C)C [Compound 20]	0.112 ± 0.067	–
Cc1n[nH]c(C)c1CCSc1ccc(C(=O)Nc2ccc(F)cc2)cn1 [Compound 47]	> 5	–
O=C(Nc1ccc(F)cc1)c1ccc(SCc2ccncc2)nc1 [Compound 43]	> 5	–
CC1(C)OB(c2ccccc2CSc2ccc(C(=O)Nc3ccc(F)cc3)cn2)OC1(C)C [Compound 16]	0.275 ± 0.103	–
O=C(Nc1ccc(F)cc1)c1ccc(SCC(=O)c2cc(-c3ccc(Cl)cc3Cl)no2)nc1 [Compound 136]	> 5	–
O=C(Nc1ccc(F)cc1)c1ccc(SCc2cc(F)ccc2B(O)O)nc1 [Compound 3]	0.052 ± 0.005	–
O=C(CSc1ccc(C(=O)Nc2ccc(F)cc2)cn1)c1ccc(Cl)c(Cl)c1 [Compound 93]	–	1.85 ± 0.55
O=C(Nc1ccncc1)c1ccc(SCc2ccccc2B(O)O)nc1 [Compound 162]	0.52 ± 0.263	–
O=C(O)CN(C(=O)c1ccc(SCc2ccccc2B(O)O)nc1)c1ccc(F)cc1 [Compound 158]	1.99 ± 0.46	–
Cc1nc(-c2ccc(CSc3ccc(C(=O)Nc4ccc(F)cc4)cn3)cc2)no1 [Compound 34]	> 10	–
CC(C)(C)c1cc(C(=O)CSc2ccc(C(=O)Nc3ccc(F)cc3)cn2)cc(C(C)(C)C)c1O [Compound 96]	> 10	–
CN(C(=O)c1ccc(SCc2ccccc2B(O)O)nc1)c1ccc(F)cc1 [Compound 154]	> 5	–
O=C(Nc1ccc(F)cc1)c1ccc(SCc2ccc([N+](=O)[O-])o2)nc1 [Compound 75]	> 5	–
COc1cc(CSc2ccc(C(=O)Nc3ccc(F)cc3)cn2)c(B(O)O)cc1OC [Compound 5, 6-(2-boronic acid-4,5-di-methoxy-benzylsulfanyl)-N-(4-fluoro-phenyl)-nicotinamide]	> 10	–
O=C(Nc1ccc(F)cc1)c1ccc(SCc2ccc(-n3cccc3)cc2)nc1 [Compound 31]	> 10	–
Cc1nc(-c2cccc(CSc3ccc(C(=O)Nc4ccc(F)cc4)cn3)c2)cs1 [Compound 37]	> 5	–
Cc1nc(-c2ccc(C(F)(F)F)cc2)sc1C(=O)CSc1ccc(C(=O)Nc2ccc(F)cc2)cn1 [Compound 148]	> 5	–
O=C(Nc1ccc(F)cc1)c1ccc(SCc2cccc3nonc23)nc1 [Compound 66]	> 5	–
O=C(Nc1ccc(F)cc1)c1ccc(SCC(=O)c2ccco2)nc1 [Compound 116]	–	> 10
O=C(CSc1ccc(C(=O)Nc2ccc(F)cc2)cn1)c1cccc(Br)c1 [Compound 89]	0.852 ± 0.292	–
CC1(C)OB(c2ccc(F)cc2CSc2ccc(C(=O)Nc3ccc(F)cc3)cn2)OC1(C)C [Compound 18]	1.23 ± 0.12	–

Further lines, with some results ahead:

IC50 (human neutrophils, 25 nM GROα) [µM]	Compound	IC50 [µM]
> 10	O=C(CSc1ccc(C(=O)Nc2ccc(F)cc2)cn1)c1ccncc1 [Compound 115]	–
> 5	O=C(CSc1ccc(C(=O)Nc2ccc(F)cc2)cn1)c1cccnc1 [Compound 114]	–
> 5	O=C(CSc1ccc(C(=O)Nc2ccc(F)cc2)cn1)c1ccc2occc2c1 [Compound 117]	–
0.393 ± 0.16	O=C(Nc1ccc(F)cc1)c1ccc(SCc2ccccc2)nc1 [Compound 12]	–
1.21 ± 0.39	Cc1nc(-c2ccccc2)sc1CSc1ccc(C(=O)Nc2ccc(F)cc2)cn1 [Compound 70]	–
> 10	Cc1c(C(=O)CSc2ccc(C(=O)Nc3ccc(F)cc3)cn2)cnn1-c1ccccc1 [Compound 150]	–
> 10	O=C(CSc1ccc(C(=O)Nc2ccc(F)cc2)cn1)c1ccsc1 [Compound 121]	–
> 10	O=C(CSc1ccc(C(=O)Nc2ccc(F)cc2)cn1)c1ccc(C(F)(F)F)cc1 [Compound 86]	–
> 10	Cc1c(C(=O)CSc2ccc(C(=O)Nc3ccc(F)cc3)cn2)sc2ccccc12 [Compound 129]	–
> 10	Cc1nc(-c2ccccc2)sc1C(=O)CSc1ccc(C(=O)Nc2ccc(F)cc2)cn1 [Compound 146]	–
0.387 ± 0.125	O=C(Nc1ccc(F)cc1)c1ccc(SCCc2ccccc2B(O)O)nc1 [Compound 9]	–
> 5	O=C(Nc1ccc(F)cc1)c1ccc(SCC(=O)c2nc3ccccc3s2)nc1 [Compound 145]	–
> 10	O=C(CSc1ccc(C(=O)Nc2ccc(F)cc2)cn1)c1ccc(-c2cccs2)cc1 [Compound 98]	–
> 10	O=C(Nc1ccc(F)cc1)c1ccc(SCC(=O)c2ccccc2C(F)(F)F)nc1 [Compound 108]	–
1.23	O=C(Nc1ccc(F)cc1)c1ccc(SCC(=O)C(c2ccccc2)c2ccccc2)nc1 [Compound 153]	–
> 5	O=C(Nc1ccc(F)cc1)c1ccc(SCc2nccc3ccccc23)nc1 [Compound 54]	–
> 5	O=C(CSc1ccc(C(=O)Nc2ccc(F)cc2)cn1)c1ccc(F)c(F)c1 [Compound 95]	–
0.21 ± 0.19	O=C(CSc1ccc(C(=O)Nc2ccc(F)cc2)cn1)c1cccc(Cl)c1 [Compound 90]	–
> 10	Cc1ccc2sc(C(=O)CSc3ccc(C(=O)Nc4ccc(F)cc4)cn3)c(C)c2c1 [Compound 130]	–
0.78 ± 0.51	Cc1c(C(=O)CSc2ccc(C(=O)Nc3ccc(F)cc3)cn2)sc2ccc(Cl)cc12 [Compound 132]	–
> 10	N#Cc1ccc(C(=O)CSc2ccc(C(=O)Nc3ccc(F)cc3)cn2)cc1 [Compound 102]	–
> 10	O=C(Nc1ccc(F)cc1)c1ccc(SCC(=O)c2ccc(-c3ccccn3)s2)nc1 [Compound 124]	–
2.24 ± 0.71	O=C(Nc1ccc(F)cc1)c1ccc(SCC(=O)c2ccsn2)nc1 [Compound 144]	–
